Patent US20240109924A1, “IP4-4,6 SUBSTITUTED DERIVATIVE COMPOUNDS” (SANIFIT THERAPEUTICS, S.A., priority 2021, published 2024)
Structures can show the parent of a compound that is named as a salt.

Test: In vitro inhibition of calcium phosphate crystallization in human plasma (spectrophotometric assay)
Format: biochemical
Conditions: 0-100 μM, 1.5 mM phosphate, 12.5 mM calcium, pH 7.4, absorbance 550 nm, slope 6-24 min, read-out: Relative Potency
Procedure: The in vitro efficacy of the IP4-4,6 substituted derivatives (e.g., Compounds 1 to 53) of the invention on the inhibition of calcium phosphate crystallization in human plasma samples was evaluated according to a spectrophotometric assay previously described in the art (Ferrer M, et al., Sci Rep 2017; 7:6858, doi:10.1038/s41598-017-07203-x).
A 96-well plate was employed. Plasma was spiked (1 volume of the IP4-4,6 substituted derivatives of the invention per 19 volumes of plasma) with increasing concentrations of the derivatives in the range of 0-100 μM. Plasma was then centrifuged at 10,000 g at rt and subsequently mixed with a mixture of 5 mM hydrogen phosphate and 41.67 mM calcium to attain final concentrations of 1.5 mM phosphate and 12.5 mM calcium, respectively. All reagent solutions were filtered, and pH adjusted to 7.4.
Crystallization of calcium phosphate was monitored spectrophotometrically for 30 min at rt by measuring the increments in absorbance at 550 nm using the Biotek Powerwave XS Microplate spectrophotometer (BioTek Instruments, Inc., Winooski, VT, US). The plate was incubated at rt in an orbital shaker and absorbance measured every 3 min.
Plasma crystallization was assessed based on slope measurement in the linear range between 6 and 24 min from plots of increase in absorbance versus logarithm of time. The efficacy of different myo-inositol phosphates derivatives in preventing in vitro formation of calcium phosphate crystals was assessed in human plasma samples using the slopes obtained between 6- and 24-min. Inhibition of crystallization was measured by comparing the slopes of the control sample (blank plasma) with those of samples containing the inhibitor as shown below: […]

Compound | EC50 [µM]
CCCCCCCCCCOC1C(OP(=O)(O)O)C(OCCCCCCCCCC)C(OP(=O)(O)O)C(OP(=O)(O)O)C1OP(=O)(O)O (stereo not drawn) [Compound 2, 4,6-O-didecyl-myo-inositol-1,2,3,5-tetrakis(phosphate) octasodium salt] | > 10
CCCCCCCCCCCCCCO[C@@H]1[C@@H](OP(=O)(O)O)[C@H](OCCCCCCCCCCCCCC)[C@@H](OP(=O)(O)O)[C@@H](OP(=O)(O)O)[C@H]1OP(=O)(O)O [Compound 3, 4,6-O-di(tetradecyl)-myo-inositol-1,2,3,5-tetrakis(phosphate) octasodium salt] | ≤ 5
CCCO[C@@H]1[C@@H](OP(=O)(O)O)[C@H](OCCC)[C@@H](OP(=O)(O)O)[C@@H](OP(=O)(O)O)[C@H]1OP(=O)(O)O [Compound 4, 4,6-O-dipropyl-myo-inositol-1,2,3,5-tetrakis(phosphate) octasodium salt] | ≤ 5
CCCCCCCOC1C(OP(=O)(O)O)C(OCCCCCCC)C(OP(=O)(O)O)C(OP(=O)(O)O)C1OP(=O)(O)O (stereo not drawn) [Compound 5, 4,6-O-diheptyl-myo-inositol-1,2,3,5-tetrakis(phosphate) octasodium salt] | ≤ 5
O=P(O)(O)OC1C(OCCCCCCCCCCO)C(OP(=O)(O)O)C(OP(=O)(O)O)C(OP(=O)(O)O)C1OCCCCCCCCCCO (stereo not drawn) [Compound 7, 4,6-O-bis(10-hydroxydecyl)-myo-inositol-1,2,3,5-tetrakis(phosphate) octasodium salt] | > 10
COCCCOC1C(OP(=O)(O)O)C(OCCCOC)C(OP(=O)(O)O)C(OP(=O)(O)O)C1OP(=O)(O)O (stereo not drawn) [Compound 10, 4,6-O-bis(3-methoxypropyl)-myo-inositol-1,2,3,5-tetrakis(phosphate) octasodium salt] | ≤ 5
COCCCCCCCOC1C(OP(=O)(O)O)C(OCCCCCCCOC)C(OP(=O)(O)O)C(OP(=O)(O)O)C1OP(=O)(O)O (stereo not drawn) [Compound 11, 4,6-O-bis(7-methoxyheptyl)-myo-inositol-1,2,3,5-tetrakis(phosphate) octasodium salt] | > 10
COCCCCCCCCCOC1C(OP(=O)(O)O)C(OCCCCCCCCCOC)C(OP(=O)(O)O)C(OP(=O)(O)O)C1OP(=O)(O)O (stereo not drawn) [Compound 12, 4,6-O-bis(9-methoxynonyl)-myo-inositol-1,2,3,5-tetrakis(phosphate) octasodium salt] | > 10
NCCCOC1C(OP(=O)(O)O)C(OCCCN)C(OP(=O)(O)O)C(OP(=O)(O)O)C1OP(=O)(O)O (stereo not drawn) [Compound 13, 4,6-O-bis(3-aminopropyl)-myo-inositol-1,2,3,5-tetrakis(phosphate) octasodium salt] | 5 to 10
NCCCCCCCCCCO[C@@H]1[C@@H](OP(=O)(O)O)[C@H](OCCCCCCCCCCN)[C@@H](OP(=O)(O)O)[C@@H](OP(=O)(O)O)[C@H]1OP(=O)(O)O [Compound 15, 4,6-O-bis(10-aminodecyl)-myo-inositol-1,2,3,5-tetrakis(phosphate) octasodium salt] | > 10
O=P(O)(O)OC1C(OCCCCCn2cccn2)C(OP(=O)(O)O)C(OP(=O)(O)O)C(OP(=O)(O)O)C1OCCCCCn1cccn1 (stereo not drawn) [Compound 16, 4,6-O-bis(5-(1H-pyrazol-1-yl)pentyl)-myo-inositol-1,2,3,5-tetrakis(phosphate) octasodium salt] | ≤ 5
O=P(O)(O)OC1C(OCCCCCn2cncn2)C(OP(=O)(O)O)C(OP(=O)(O)O)C(OP(=O)(O)O)C1OCCCCCn1cncn1 (stereo not drawn) [Compound 17, 4,6-O-bis(5-(1H-1,2,4-triazol-1-yl)pentyl)-myo-inositol-1,2,3,5-tetrakis(phosphate) octasodium salt] | > 10
O=C(O)CCCCCCCCCCOC1C(OP(=O)(O)O)C(OCCCCCCCCCCC(=O)O)C(OP(=O)(O)O)C(OP(=O)(O)O)C1OP(=O)(O)O (stereo not drawn) [Compound 19, 4,6-O-bis(10-carboxydecyl)-myo-inositol-1,2,3,5-tetrakis(phosphate) decasodium salt] | > 10
COCCCCCCCCC#CCCCCCCCCCOC1C(OP(=O)(O)O)C(OCCCCCCCCCC#CCCCCCCCCOC)C(OP(=O)(O)O)C(OP(=O)(O)O)C1OP(=O)(O)O (stereo not drawn) [Compound 20, 4,6-O-bis(19-methoxynonadec-10-yn-1-yl)-myo-inositol-1,2,3,5-tetrakis(phosphate) octasodium salt] | ≤ 5
CC(C)CCCOC1C(OP(=O)(O)O)C(OCCCC(C)C)C(OP(=O)(O)O)C(OP(=O)(O)O)C1OP(=O)(O)O (stereo not drawn) [Compound 21, 4,6-O-bis(4-methylpentyl)-myo-inositol-1,2,3,5-tetrakis(phosphate) octasodium salt] | > 10
O=P(O)(O)O[C@@H]1[C@@H](OCCCC(F)(F)F)[C@H](OP(=O)(O)O)[C@H](OP(=O)(O)O)[C@H](OP(=O)(O)O)[C@H]1OCCCC(F)(F)F [Compound 22, 4,6-O-bis(4,4,4-trifluorobutyl)-myo-inositol-1,2,3,5-tetrakis(phosphate) octasodium salt] | ≤ 5
O=P(O)(O)OC1C(OCCCCCC(F)(F)F)C(OP(=O)(O)O)C(OP(=O)(O)O)C(OP(=O)(O)O)C1OCCCCCC(F)(F)F (stereo not drawn) [Compound 23, 4,6-O-bis(6,6,6-trifluorohexyl)-myo-inositol-1,2,3,5-tetrakis(phosphate) octasodium salt] | > 10
COC(=O)NCCCOC1C(OP(=O)(O)O)C(OCCCNC(=O)OC)C(OP(=O)(O)O)C(OP(=O)(O)O)C1OP(=O)(O)O (stereo not drawn) [Compound 24, 4,6-O-bis(3-((methoxycarbonyl)amino)propyl)-myo-inositol-1,2,3,5-tetrakis(phosphate) octasodium salt] | > 10
COC(=O)NCCCCCOC1C(OP(=O)(O)O)C(OCCCCCNC(=O)OC)C(OP(=O)(O)O)C(OP(=O)(O)O)C1OP(=O)(O)O (stereo not drawn) [Compound 25, 4,6-O-bis(5-((methoxycarbonyl)amino)pentyl)-myo-inositol-1,2,3,5-tetrakis(phosphate) octasodium salt] | ≤ 5
NC(=O)CCCOC1C(OP(=O)(O)O)C(OCCCC(N)=O)C(OP(=O)(O)O)C(OP(=O)(O)O)C1OP(=O)(O)O (stereo not drawn) [Compound 26, 4,6-O-bis(4-amino-4-oxobutyl)-myo-inositol-1,2,3,5-tetrakis(phosphate) octasodium salt] | ≤ 5
CC(=O)NCCCCCO[C@@H]1[C@@H](OP(=O)(O)O)[C@H](OCCCCCNC(C)=O)[C@@H](OP(=O)(O)O)[C@@H](OP(=O)(O)O)[C@H]1OP(=O)(O)O [Compound 27, 4,6-O-bis(5-acetamidopentyl)-myo-inositol-1,2,3,5-tetrakis(phosphate) octasodium salt] | ≤ 5
O=P(O)(O)OC1C(OCCC2CC2)C(OP(=O)(O)O)C(OP(=O)(O)O)C(OP(=O)(O)O)C1OCCC1CC1 (stereo not drawn) [Compound 28, 4,6-O-bis(2-cyclopropylethyl)-myo-inositol-1,2,3,5-tetrakis(phosphate) octasodium salt] | ≤ 5
O=P(O)(O)O[C@@H]1[C@@H](OCCC2CCCC2)[C@H](OP(=O)(O)O)[C@H](OP(=O)(O)O)[C@H](OP(=O)(O)O)[C@H]1OCCC1CCCC1 [Compound 29, 4,6-O-bis(2-cyclopentylethyl)-myo-inositol-1,2,3,5-tetrakis(phosphate) octasodium salt] | ≤ 5
CCCNC(=O)NCCCCCOC1C(OP(=O)(O)O)C(OCCCCCNC(=O)NCCC)C(OP(=O)(O)O)C(OP(=O)(O)O)C1OP(=O)(O)O (stereo not drawn) [Compound 30, 4,6-O-bis(5-(3-propylureido)pentyl)-myo-inositol-1,2,3,5-tetrakis(phosphate) octasodium salt] | ≤ 5
